We go through 19 compounds from patent US20180186742A1, “PICOLINAMIDES AS FUNGICIDES” (Dow AgroSciences LLC, priority 2017, published 2018).

Like-named read-outs stand apart in the source and are kept apart here.

What all share (assay type): in vivo
One test relates to Zymoseptoria tritici. Nature of the test: Leaf blotch of wheat (SEPTTR), disease control on wheat seedlings. Particulars: low volume application at 121.5 g/H. In a few lines: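 Yuma wheat seedlings with the first leaf fully emerged were sprayed to run-off with compound in acetone plus nine volumes of water containing 110 ppm Triton X-100; track-spray tests used EC formulations with 0.1% Trycol 5941. Z. tritici inoculation came before or after treatment, followed by 100% RH dew periods and a 20 °C greenhouse. Percent control was calculated from severity versus untreated plants.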

Another test has as its system Puccinia triticina. Nature of the test: Wheat brown rust (PUCCRT), disease control on wheat seedlings. Particulars: low volume application at 121.5 g/H. The procedure, abridged:
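Compounds in acetone, diluted with nine volumes of water containing 110 ppm Triton X-100, sprayed to run-off on first-leaf Yuma wheat seedlings; track-spray tests used EC formulations with 0.1% Trycol 5941. Puccinia triticina spores applied before or after treatment. Overnight dark dew room at 22° C, 100% humidity, then greenhouse at 24° C.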

For the next test, the system named is Phakopsora pachyrhizi. The experiment in a line: Asian soybean rust (PHAKPA), disease control on soybean seedlings. Particulars: High volume application at 25 ppm. The procedure:
Technical grades of materials were dissolved in acetone, which were then mixed with nine volumes of water containing 0.011% Tween 20. The fungicide solutions were applied onto soybean seedlings using an automated booth sprayer to run-off. All sprayed plants were allowed to air dry prior to further handling.
Soybean plants (variety Williams 82) were grown in soil-less Metro mix, with one plant per pot. Two week old seedlings were used for testing. Plants were inoculated either 3 days prior to or 1 day after fungicide treatments. Plants were incubated for 24 h in a dark dew room at 22° C. and 100% relative humidity then transferred to a growth room at 23° C. for disease to develop. Disease severity was assessed on the sprayed leaves.

Setting [1] is: 24 h, 1 Day Protectant, wheat leaf blotch, read-out: SEPTTR 1DP disease control, LV activity.
The mark [2] stands for this setting: 72 h, 3 Day Curative, wheat leaf blotch, read-out: SEPTTR 3DC disease control, LV activity.
Where [3] appears, read: 24 h, 1 Day Protectant, wheat brown rust, read-out: PUCCRT 1DP disease control, LV activity.
[4] abbreviates: 72 h, 3 Day Curative, wheat brown rust, read-out: PUCCRT 3DC disease control, LV activity.
Setting [5] is: 24 h, 1 Day Protectant, read-out: PHAKPA 1DP disease control rating.
Setting [6] is: 72 h, 3 Day Curative, read-out: PHAKPA 3DC disease control rating.
Setting [7] is: 24 h, 1 Day Protectant, read-out: SEPTTR disease control, 1DP, LV activity.
[8] abbreviates: 72 h, 3 Day Curative, read-out: SEPTTR disease control, 3DC, LV activity.
Setting [9] is: 24 h, 1 Day Protectant, read-out: PUCCRT disease control, 1DP, LV activity.
Where [10] appears, read: 72 h, 3 Day Curative, read-out: PUCCRT disease control, 3DC, LV activity.

For the compound `COc1ccnc(C(=O)N[C@@H](C)C(=O)O[C@@H](C)[C@H](c2ccc(OC(C)C)cc2)C(C)C)c1OC(C)=O` [Compound 377], the pest or weed control at 121.5 g/ha was below 80% with Zymoseptoria tritici (setting [1]), below 80% in the test on Zymoseptoria tritici (setting [2]), above 80% in the test on Puccinia triticina (setting [3]) and below 80% in the test on Puccinia triticina (setting [4]). Besides, the pest or weed control at 25 ppm in the test with Phakopsora pachyrhizi (setting [5]) and in the test on Phakopsora pachyrhizi (setting [6]) was below 80% in each case.
As for `CCC(C)[C@@H](c1ccc(F)cc1C)[C@H](C)OC(=O)[C@H](C)NC(=O)c1nccc(OC)c1OCOC(C)=O` (stereo partly drawn) [Compound 196], the pest or weed control at 121.5 g/ha in the test with Zymoseptoria tritici (setting [7]), with Zymoseptoria tritici (setting [8]), with Puccinia triticina (setting [9]) and in the test with Puccinia triticina (setting [10]) was above 80% throughout. The pest or weed control at 25 ppm was above 80% in the test on Phakopsora pachyrhizi (setting [5]) and below 80% with Phakopsora pachyrhizi (setting [6]).
Turning to `COc1ccnc(C(=O)N[C@@H](C)C(=O)O[C@@H](C)[C@@H](c2ccc(C)cc2C)C2CCCCC2)c1OCOC(C)=O` [Compound 206], the pest or weed control at 121.5 g/ha was below 80% in the test with Zymoseptoria tritici (setting [7]), below 80% in the test on Zymoseptoria tritici (setting [8]), below 80% in the test with Puccinia triticina (setting [9]) and below 0% with Puccinia triticina (setting [10]). Moreover, the values for the pest or weed control at 25 ppm with Phakopsora pachyrhizi (setting [5]) and with Phakopsora pachyrhizi (setting [6]) were below 80% and below 0%, respectively.
On to `COc1ccnc(C(=O)N[C@@H](C)C(=O)O[C@@H](C)[C@H](c2ccc(F)c(F)c2)C(C)C)c1OC(C)=O` [Compound 244], for which the pest or weed control at 121.5 g/ha with Zymoseptoria tritici (setting [7]) is above 80%; in the test on Zymoseptoria tritici (setting [8]), below 80%; in the test on Puccinia triticina (setting [9]), above 80%; in the test with Puccinia triticina (setting [10]) it was above 80%. Moreover, the pest or weed control at 25 ppm was above 80% in the test with Phakopsora pachyrhizi (setting [5]) and below 80% in the test with Phakopsora pachyrhizi (setting [6]).
`COc1ccnc(C(=O)N[C@@H](C)C(=O)O[C@H](C)[C@H](c2ccc(F)cc2C)C2CCCC2)c1OCOC(C)=O` [Compound 198]: the pest or weed control at 121.5 g/ha was below 80% in the test on Zymoseptoria tritici (setting [7]), below 80% in the test with Zymoseptoria tritici (setting [8]), below 80% with Puccinia triticina (setting [9]) and below 0% in the test with Puccinia triticina (setting [10]). Moreover, the pest or weed control at 25 ppm in the test on Phakopsora pachyrhizi (setting [5]) and in the test on Phakopsora pachyrhizi (setting [6]) was below 80% throughout.
Regarding `COc1ccnc(C(=O)N[C@H](C(=O)O[C@@H](C)[C@H](c2ccc(F)cc2C)C(C)C)C(C)C)c1OC(C)=O` [Compound 347], the pest or weed control at 121.5 g/ha in the test with Zymoseptoria tritici (setting [7]) is above 80%; with Zymoseptoria tritici (setting [8]), above 80%; in the test on Puccinia triticina (setting [9]), above 80%; in the test on Puccinia triticina (setting [10]), below 80%. Besides, the pest or weed control at 25 ppm in the test on Phakopsora pachyrhizi (setting [5]) and with Phakopsora pachyrhizi (setting [6]) was above 80% in each case.
Consider `COc1cc(F)ccc1[C@H](C(C)C)[C@H](C)OC(=O)[C@H](C)NC(=O)c1nccc(OC)c1OC(C)=O` [Compound 232], for which the pest or weed control at 121.5 g/ha with Zymoseptoria tritici (setting [7]) is above 80%; in the test on Zymoseptoria tritici (setting [8]), below 80%; in the test on Puccinia triticina (setting [9]), above 80%; in the test with Puccinia triticina (setting [10]) it was above 80%. Moreover, the pest or weed control at 25 ppm in the test with Phakopsora pachyrhizi (setting [5]) and with Phakopsora pachyrhizi (setting [6]) was above 80% each time.
Take `COc1ccnc(C(=O)N[C@@H](C)C(=O)O[C@@H](C)[C@H](c2ccc(F)cc2F)C(C)C)c1OC(C)=O` [Compound 365]: the pest or weed control at 121.5 g/ha in the test with Zymoseptoria tritici (setting [1]), in the test with Zymoseptoria tritici (setting [2]), with Puccinia triticina (setting [3]) and with Puccinia triticina (setting [4]) was above 80% throughout. Further, the pest or weed control at 25 ppm in the test on Phakopsora pachyrhizi (setting [5]) and in the test on Phakopsora pachyrhizi (setting [6]) was above 80% in each case.
With `COc1ccnc(C(=S)N[C@@H](C)C(=O)O[C@@H](C)[C@@H](c2ccccc2)C2CCCC2)c1OC(C)=O` [Compound 177], the pest or weed control at 121.5 g/ha with Zymoseptoria tritici (setting [7]) is below 80%; in the test with Zymoseptoria tritici (setting [8]), below 0%; in the test with Puccinia triticina (setting [9]), below 80%; in the test on Puccinia triticina (setting [10]), below 0%. The pest or weed control at 25 ppm was above 80% in the test with Phakopsora pachyrhizi (setting [5]) and below 0% in the test on Phakopsora pachyrhizi (setting [6]).
Turning to `COc1ccc([C@H](C(C)C)[C@H](C)OC(=O)[C@H](C)NC(=O)c2nccc(OC)c2OC(C)=O)cc1` [Compound 383], the pest or weed control at 121.5 g/ha in the test on Zymoseptoria tritici (setting [1]) is below 80%; in the test on Zymoseptoria tritici (setting [2]) it was below 80%; in the test with Puccinia triticina (setting [3]) it was above 80%; in the test on Puccinia triticina (setting [4]), below 80%. Further, the pest or weed control at 25 ppm is above 80% in the test with Phakopsora pachyrhizi (setting [5]) and below 80% in the test on Phakopsora pachyrhizi (setting [6]).
As to `CCC(CC)[C@H](c1ccc(F)cc1OC)[C@H](C)OC(=O)[C@H](C)NC(=O)c1nccc(OC)c1OC(C)=O` [Compound 222], the pest or weed control at 121.5 g/ha was above 80% in the test with Zymoseptoria tritici (setting [7]), above 80% in the test with Zymoseptoria tritici (setting [8]), above 80% in the test with Puccinia triticina (setting [9]) and below 80% in the test with Puccinia triticina (setting [10]). Also, the values for the pest or weed control at 25 ppm in the test with Phakopsora pachyrhizi (setting [5]) and with Phakopsora pachyrhizi (setting [6]) were above 80% and below 80%, respectively.
Turning to `COc1cc(F)ccc1[C@H](C1CCC1)[C@H](C)OC(=O)[C@H](C)NC(=O)c1nccc(OC)c1OC(C)=O` [Compound 231], the pest or weed control at 121.5 g/ha in the test on Zymoseptoria tritici (setting [7]), in the test on Zymoseptoria tritici (setting [8]), in the test on Puccinia triticina (setting [9]) and in the test on Puccinia triticina (setting [10]) was below 80% in each case. Besides, the pest or weed control at 25 ppm with Phakopsora pachyrhizi (setting [5]) was above 80%; with Phakopsora pachyrhizi (setting [6]), below 80%.
Turning to `COc1ccnc(C(=O)N[C@@H](C)C(=O)O[C@@H](C)[C@@H](c2ccc(C)cc2C)C2CCC2)c1OCOC(C)=O` [Compound 240], the pest or weed control at 121.5 g/ha is below 80% in the test with Zymoseptoria tritici (setting [7]), above 80% with Zymoseptoria tritici (setting [8]), above 80% in the test on Puccinia triticina (setting [9]) and above 80% in the test with Puccinia triticina (setting [10]). For the same compound, the figures for the pest or weed control at 25 ppm with Phakopsora pachyrhizi (setting [5]) and in the test on Phakopsora pachyrhizi (setting [6]) were above 80% and below 80%, respectively.
Take `COc1ccnc(C(=O)N[C@@H](C)C(=O)O[C@@H](C)[C@H](c2ccccc2)C(C)C)c1OCOC(C)=O` [Compound 164]: the pest or weed control at 121.5 g/ha with Zymoseptoria tritici (setting [7]), in the test with Zymoseptoria tritici (setting [8]), in the test on Puccinia triticina (setting [9]) and in the test on Puccinia triticina (setting [10]) was above 80% each time. Also, the pest or weed control at 25 ppm was above 80% in the test on Phakopsora pachyrhizi (setting [5]) and below 80% in the test with Phakopsora pachyrhizi (setting [6]).
For `COc1ccnc(C(=O)N[C@@H](C)C(=O)O[C@@H](C)[C@@H](c2ccc(F)cc2C)C2CCCCC2)c1OC(C)=O` [Compound 181], the pest or weed control at 121.5 g/ha in the test on Zymoseptoria tritici (setting [7]) was below 80%; with Zymoseptoria tritici (setting [8]) it was above 80%; in the test on Puccinia triticina (setting [9]), below 80%; in the test on Puccinia triticina (setting [10]), below 80%. Besides, the results for the pest or weed control at 25 ppm with Phakopsora pachyrhizi (setting [5]) and in the test on Phakopsora pachyrhizi (setting [6]) were below 0% and below 80%, respectively.
Regarding `COc1ccnc2c(=O)n([C@@H](C)C(=O)O[C@@H](C)[C@@H](c3ccc(C)cc3C)C3CCCC3)c(=O)oc12` [Compound 209], the pest or weed control at 121.5 g/ha was below 80% with Zymoseptoria tritici (setting [7]), below 80% with Zymoseptoria tritici (setting [8]), below 0% with Puccinia triticina (setting [9]) and below 0% in the test with Puccinia triticina (setting [10]). In addition, the pest or weed control at 25 ppm with Phakopsora pachyrhizi (setting [5]) is below 80%; in the test on Phakopsora pachyrhizi (setting [6]), below 0%.
In the case of `COCCC(=O)Oc1c(OC)ccnc1C(=O)N[C@H](C(=O)O[C@@H](C)[C@H](c1ccc(F)cc1C)C(C)C)C(C)C` [Compound 351], the pest or weed control at 121.5 g/ha in the test on Zymoseptoria tritici (setting [7]) was above 80%; in the test with Zymoseptoria tritici (setting [8]), below 80%; in the test with Puccinia triticina (setting [9]), above 80%; in the test on Puccinia triticina (setting [10]), below 80%. Moreover, the pest or weed control at 25 ppm with Phakopsora pachyrhizi (setting [5]) was above 80%; in the test on Phakopsora pachyrhizi (setting [6]) it was below 80%.
Regarding `COc1ccnc(C(=O)N[C@@H](C)C(=O)O[C@@H](C)[C@H](c2ccccc2OC(C)C)C(C)C)c1OC(C)=O` [Compound 376], the pest or weed control at 121.5 g/ha is below 80% in the test with Zymoseptoria tritici (setting [1]), below 80% in the test on Zymoseptoria tritici (setting [2]), above 80% in the test on Puccinia triticina (setting [3]) and below 80% in the test on Puccinia triticina (setting [4]). Also, the pest or weed control at 25 ppm in the test on Phakopsora pachyrhizi (setting [5]) was above 80%; with Phakopsora pachyrhizi (setting [6]), below 80%.
Turning to `CCC(C)[C@H](c1ccc(F)cc1OC)[C@H](C)OC(=O)[C@H](C)NC(=O)c1nccc(OC)c1OC(C)=O` (stereo partly drawn) [Compound 225], the pest or weed control at 121.5 g/ha in the test with Zymoseptoria tritici (setting [7]) was above 80%; with Zymoseptoria tritici (setting [8]) it was above 80%; in the test with Puccinia triticina (setting [9]), above 80%; with Puccinia triticina (setting [10]), below 80%. Moreover, the pest or weed control at 25 ppm with Phakopsora pachyrhizi (setting [5]) was above 80%; with Phakopsora pachyrhizi (setting [6]), below 80%.
